From US9675072B2, “Tetrazolinone compound and application of same” (SUMITOMO CHEMICAL COMPANY, LIMITED, priority 2013, dated 2017)

Tests used:
Assay type in all cases: in vivo
[1] = test system: wheat leaf blotch fungus (Septoria tritici); experiment: Wheat leaf blotch control test, foliage spray on wheat; conditions: Test Example 11; 200 ppm foliage spray; wheat (APOGEE); inoculated 4 days after spraying
[2] = test system: rice blast fungus (Magnaporthe grisea); conditions: Test Example 7; 200 ppm foliage spray; rice (NIHONBARE); 6 days in contact with infected seedlings
[3] = test system: wheat rust fungus (Puccinia recondita); experiment: Wheat rust control test, foliage spray on wheat; conditions: Test Example 8; 200 ppm foliage spray; wheat (SHIROGANE); inoculated 5 days after spraying
Method: (§1) The control effect was evaluated by visually observing the area of lesion spots on each of test plants at the time of investigation, and comparing the area of lesion spots on a plant treated with the present control agent with that on an untreated plant. The untreated plant is a plant tested under the same conditions as in Test Examples, except that foliage application of a diluted solution of a formulation containing the present compound with water is not performed.
Each of plastic pots was filled with sandy loam and wheat (cultivar: SHIROGANE) was sowed and grown in a greenhouse for 9 days. Each of the present compounds 1 to 5, 11, and 1 was diluted with water to adjust to a predetermined concentration of 500 ppm. The obtained diluted solution was sprayed over stems and leaves of the wheat so that they sufficiently adhered to the surface of the leaves of the wheat. After spraying, the plant was air-dried and cultivated at 20° C. for 5 days under illumination, and then inoculated by sprinkling with spores of wheat rust fungus (Puccinia recondita). After the inoculation, the plant was left to stand at 23° C. for one day under dark and high humidity condition, and cultivated under illumination at 20° C. for 8 days, and then the area of lesion spots was investigated. […]

[4] = test system: barley net blotch fungus (Pyrenophora teres); experiment: Barley net blotch control test, foliage spray on barley; conditions: barley (MIKAMO GOLDEN), inoculated 2 days after spraying
Method: as §1
Each of plastic pots was filled with sandy loam and barley (cultivar: MIKAMO GOLDEN) was sowed and grown in a greenhouse for 7 days. Each of the present compounds 1 to 8, 10 to 12, and 14 was diluted with water to adjust to a predetermined concentration of 500 ppm. The obtained diluted solution was sprayed over stems and leaves of the barley so that it sufficiently adhered to the surface of the leaves of the barley. After spraying, the plant was air-dried. After 2 days, an aqueous suspension containing spores of barley net blotch fungus (Pyrenophora teres) was sprayed to inoculate the spores. After completion of the inoculation, the plant was left to stand for 3 days in a greenhouse at 23° C. in the daytime and 20° C. at night under high humidity condition and cultivated in a greenhouse for 7 days, and then the area of lesion spots was investigated. […]

[5] = test system: cucumber powdery mildew fungus (Sphaerotheca fuliginea, a QoI-resistant strain, cytochrome b position 143 glycine to alanine); experiment: Cucumber powdery mildew control test, foliage spray on cucumber; conditions: Test Example 6, 500 ppm foliage spray, cucumber (SAGAMI HANJIRO), 8 days after inoculation

COc1c(C(F)F)c(-c2ccc(OCc3ccccc3-n3nnn(C)c3=O)c(C)c2)nn1C [compound 9]
≤ 30%: area of lesion spots on treated plant relative to untreated plant [1]

COc1cc(-c2cc(C)c(OCc3ccccc3-n3nnn(C)c3=O)cc2C)nn1C [compound 14]
≤ 30%: lesion area on treated plant with respect to the lesion area on the non-treated plant [2] | area of lesion spots on treated plant relative to untreated plant [3] | area of lesion spots on treated plant relative to untreated plant ([4]; Test Example 3, 500 ppm foliage spray) | area of lesion spots on treated plant relative to untreated plant ([4]; Test Example 9, 200 ppm foliage spray) | area of lesion spots on treated plant relative to untreated plant [5]
